Measurements reported in ChEMBL document CHEMBL4190311, “Discovery of cycloalkyl-fused N-thiazol-2-yl-benzamides as tissue non-specific glucokinase activators: Design, synthesis, and biological evaluation” (Eur J Med Chem, 2017).
Activity calls are given as the source filed them. The rule behind the calls is not given here.

How the values were obtained:
Hepatocyte = experiment: Increase in glucose uptake in mouse primary hepatocytes assessed as glucose uptake level at 20 uM after 24 hrs by glucose oxidase method relative to control; assay type: functional
[1] = molecular target: T1, Hexokinase-4 (Rattus norvegicus) (UniProt P17712); experiment: Activation of glucokinase in rat INS1(832/13) cells assessed as increase in glucose sensitive insulin secretion at 20 uM after 2 hrs in presence of 5.5 mM glucose by AlphaLISA method relative to control; assay type: cell-based
T1 sequence (whole entry): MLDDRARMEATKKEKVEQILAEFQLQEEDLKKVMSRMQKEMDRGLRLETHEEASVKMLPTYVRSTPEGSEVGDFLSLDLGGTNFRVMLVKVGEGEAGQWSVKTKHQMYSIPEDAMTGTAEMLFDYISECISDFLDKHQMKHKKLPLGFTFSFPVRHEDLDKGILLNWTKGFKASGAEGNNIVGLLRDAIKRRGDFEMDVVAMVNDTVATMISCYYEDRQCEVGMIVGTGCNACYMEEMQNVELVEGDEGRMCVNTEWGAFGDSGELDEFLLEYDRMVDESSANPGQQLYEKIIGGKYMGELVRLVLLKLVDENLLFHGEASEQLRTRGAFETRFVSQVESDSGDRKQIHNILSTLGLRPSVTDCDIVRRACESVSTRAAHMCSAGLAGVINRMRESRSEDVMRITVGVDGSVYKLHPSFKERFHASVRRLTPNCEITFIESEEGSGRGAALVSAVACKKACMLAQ

Hexokinase-4 [2] = molecular target: T2, Hexokinase-4 (Homo sapiens, UniProt P35557); experiment: Activation of recombinant human liver glucokinase 2 assessed as […] in presence of 5 mM glucose by G6PDH coupled assay
T2 sequence (P35557 whole entry): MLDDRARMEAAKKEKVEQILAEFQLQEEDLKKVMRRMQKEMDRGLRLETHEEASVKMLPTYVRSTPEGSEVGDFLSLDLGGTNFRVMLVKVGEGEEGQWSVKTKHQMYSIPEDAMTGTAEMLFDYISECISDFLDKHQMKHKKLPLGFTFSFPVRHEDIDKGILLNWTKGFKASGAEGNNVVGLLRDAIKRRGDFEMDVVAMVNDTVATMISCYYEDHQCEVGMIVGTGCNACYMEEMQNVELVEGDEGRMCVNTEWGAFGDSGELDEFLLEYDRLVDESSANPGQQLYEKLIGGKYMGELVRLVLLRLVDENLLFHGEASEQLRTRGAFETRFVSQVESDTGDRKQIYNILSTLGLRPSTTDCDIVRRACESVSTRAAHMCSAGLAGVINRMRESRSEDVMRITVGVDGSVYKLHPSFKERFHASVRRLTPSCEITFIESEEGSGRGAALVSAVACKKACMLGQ

INS1(832/13) [3] = experiment: Cytoprotection in rat INS1(832/13) cells assessed as reduction in streptozocin induced beta cells apoptosis after 20 hrs by MTT based spectrophotometric method; assay type: functional, cell-based; details: INS-1 832/13, 20 h
Hexokinase-4 [4] = molecular target: T2, Hexokinase-4; experiment: Activation of recombinant human liver glucokinase 2 assessed as assessed as reduction in Km for glucose in presence of 5 mM glucose by G6PDH coupled assay
INS1(832/13) [5] = experiment: Cytoprotection in rat INS1(832/13) cells assessed as reduction in streptozocin induced beta cells apoptosis after 20 hrs by MTT based spectrophotometric method relative to control; assay type: functional; parameters: scale not given: the % may be the effect or the level left

Row | Structure (SMILES) | Activity (Hepatocyte) | fold change (FC) [1] | EC50 (Hexokinase-4 [2]) [nM] | EC50 (INS1(832/13) [3]) [nM] | EC50 (Hexokinase-4 [4]) [nM] | Activity (INS1(832/13) [5]) [%]
1 | COC[C@H](C)Oc1cc(Oc2ccc(C(=O)N3CCC3)cc2)cc(C(=O)Nc2nc3c(s2)CCN(C(=O)OC(C)(C)C)C3)c1 | 13% | 2.24 | 460 | – | – | –
2 | COCC(C)Oc1cc(Oc2ccccc2S(C)(=O)=O)cc(C(=O)Nc2nc3c(s2)CN(C(=O)OC(C)(C)C)CC3)c1 (stereo unspecified) | – | – | > 10000 | – | – | –
3 | COC[C@H](C)Oc1cc(Oc2ccc(C(=O)N3CCC3)cc2)cc(C(=O)Nc2nc3c(s2)N(C(=O)OC(C)(C)C)CCC3)c1 | – | – | 6080 | – | – | –
4 | COC[C@H](C)Oc1cc(Oc2ccc(C(=O)N3CCC3)cc2)cc(C(=O)Nc2nc3c(s2)CN(C(=O)OC)CC3)c1 | 16% | 5.68 | 690 | – | – | –
5 | COCC(C)Oc1cc(Oc2cccc(S(C)(=O)=O)c2)cc(C(=O)Nc2nc3c(s2)CN(C(=O)OC(C)(C)C)CC3)c1 (stereo unspecified) | 25% | 1.14 | 820 | – | – | –
6 | COCC(C)Oc1cc(Oc2ccc(S(C)(=O)=O)cc2)cc(C(=O)Nc2nc3c(s2)CCCC3)c1 (stereo unspecified) | 31% | inactive | 890 | 700 | 30 | 66
7 | COC[C@@H](C)Oc1cc(Oc2ccc(C(=O)N3CCC3)cc2)cc(C(=O)Nc2nc3c(s2)CN(C(=O)OC(C)(C)C)CC3)c1 | – | – | 2600 | – | – | –
8 | COCC(C)Oc1cc(Oc2ccc(S(C)(=O)=O)cc2)cc(C(=O)Nc2nc3c(s2)C(=O)CCC3)c1 (stereo unspecified) | – | – | > 10000 | – | – | –
9 | COCCOc1cc(Oc2ccc(S(C)(=O)=O)cc2)cc(C(=O)Nc2nc3c(s2)CN(C(=O)OC(C)(C)C)CC3)c1 | – | – | 2230 | – | – | –
10 | COCC(C)Oc1cc(Oc2ccc(S(C)(=O)=O)cc2)cc(C(=O)Nc2nc3c(s2)CN(Cc2ccccc2)CC3)c1 (stereo unspecified) | – | – | > 10000 | – | – | –
11 | COC[C@H](C)Oc1cc(Oc2ccc(C(=O)N3CCC3)cc2)cc(C(=O)Nc2nc3c(s2)CNCC3)c1 | – | – | 1130 | – | – | –
12 | COC[C@H](C)Oc1cc(Oc2ccc(C(=O)N3CCC3)cc2)cc(C(=O)Nc2nc3c(s2)CN(c2cc[nH]c(=O)c2)CC3)c1 | inactive | 5.51 | 300 | – | – | –
13 | Cc1cnc(NC(=O)c2cc(Oc3cnc(C(=O)N(C)C)nc3)c3cc(C)oc3c2)cn1 [NERIGLIATIN] | – | – | – | 2150 | – | 114
14 | C[C@@H](CO)Oc1cc(Oc2ccc(C(=O)N3CCC3)cc2)cc(C(=O)Nc2nc3c(s2)CN(C(=O)OC(C)(C)C)CC3)c1 | – | – | 1300 | – | – | –
15 | COCC(C)Oc1cc(Oc2ccc(S(C)(=O)=O)cc2)cc(C(=O)Nc2nc3c(s2)CCC3)c1 (stereo unspecified) | 31% | inactive | 100 | – | – | –
16 | COCC(C)Oc1cc(Oc2ccc(S(C)(=O)=O)cc2)cc(C(=O)Nc2nc3c(s2)CN(c2cccnc2)CC3)c1 (stereo unspecified) | – | – | 1090 | – | – | –
17 | COCC(C)Oc1cc(Oc2ccc(C(=O)N3CCC3)nc2)cc(C(=O)Nc2nc3c(s2)CN(C(=O)OC(C)(C)C)CC3)c1 (stereo unspecified) | inactive | 5.4 | 870 | – | – | –
18 | COC[C@H](C)Oc1cc(Oc2ccc(C(=O)N3CCC3)c(F)c2)cc(C(=O)Nc2nc3c(s2)CN(C(=O)OC(C)(C)C)CC3)c1 | 19% | 1.1 | 330 | – | – | –
19 | COCC(C)Oc1cc(Oc2ccc(S(C)(=O)=O)cc2)cc(C(=O)Nc2nc3c(s2)CN(C(C)C)CC3)c1 (stereo unspecified) | – | – | 7080 | – | – | –
20 | COC[C@H](C)Oc1cc(Oc2cc(F)cc(F)c2)cc(C(=O)Nc2nc3c(s2)CN(C(=O)OC(C)(C)C)CC3)c1 | 15% | 1.3 | 200 | – | – | –
21 | COCC(C)Oc1cc(Oc2ccc(S(=O)(=O)N3CCC3)cc2)cc(C(=O)Nc2nc3c(s2)CN(C(=O)OC(C)(C)C)CC3)c1 (stereo unspecified) | inactive | 1.37 | 900 | – | – | –
22 | CC(C)Oc1cc(Oc2ccc(S(C)(=O)=O)cc2)cc(C(=O)Nc2nc3c(s2)CN(C(=O)OC(C)(C)C)CC3)c1 | 34% | inactive | 170 | – | – | –
23 | CC(C)(C)OC(=O)N1CCc2nc(NC(=O)c3cc(Oc4ccc(S(C)(=O)=O)cc4)cc(OC4CCCCC4)c3)sc2C1 | 29% | inactive | 550 | – | – | –
